Data set [1] deals with HCV replicon in HUH-7 cells. Nature of the data set: HCV replicon FRET assay. In kind it is cell-based, Hepatitis C virus (strain 1b). To be noted: Hepatitis C virus, Huh-7; HCV replicon, for compounds tested; read-out: EC50 Range. The source says:
An HCV replicon whole cell system was established as described by Lohmann V, Komer F, Koch J, Herian U, Theilmann L, Bartenschlager R., Science 285(5424):110-3 (1999). This system enabled us to evaluate the effects of our HCV Protease compounds on HCV RNA replication. Briefly, using the HCV strain 1b sequence described in the Lohmann paper (Assession number: AJ238799), an HCV cDNA was synthesized by Operon Technologies, Inc. (Alameda, Calif.), and the full-length replicon was then assembled in plasmid pGem9zf(+) (Promega, Madison, Wis.) using standard molecular biology techniques. The replicon consists of (i) the HCV 5′ UTR fused to the first 12 amino acids of the capsid protein, (ii) the neomycin phosphotransferase gene (neo), (iii) the IRES from encephalomyocarditis virus (EMCV), and (iv) HCV NS3 to NS5B genes and the HCV 3′ UTR. Plasmid DNAs were linearized with Scal and RNA transcripts were synthesized in vitro using the T7 MegaScript transcription kit (Ambion, Austin, Tex.) according to manufacturer's directions. In vitro transcripts of the cDNA were transfected into the human hepatoma cell line, HUH-7. […] Resulting cell lines were characterized for positive and negative strand RNA production and protein production over time.
The HCV replicon FRET assay was developed to monitor the inhibitory effects of compounds described in the disclosure on HCV viral replication. HUH-7 cells, constitutively expressing the HCV replicon, were grown in Dulbecco's Modified Eagle Media (DMEM) (Gibco-BRL) containing 10% Fetal calf serum (FCS) (Sigma) and 1 mg/ml G418 (Gibco-BRL). Cells were seeded the night before (1.5×10^4 cells/well) in 96-well tissue-culture sterile plates. Compound and no compound controls were prepared in DMEM containing 4% FCS, 1:100 Penicillin/Streptomysin (Gibco-BRL), 1:100 L-glutamine and 5% DMSO in the dilution plate (0.5% DMSO final concentration in the assay). Compound/DMSO mixes were added to the cells and incubated for 4 days at 37° C. After 4 days, cells were first assessed for cytotoxicity using alamar Blue (Trek Diagnotstic Systems) for a CC50 reading. The toxicity of compound (CC50) was determined by adding 1/10th volume of alamar Blue to the media incubating the cells. After 4 hours, the fluorescence signal from each well was read, with an excitation wavelength at 530 nm and an emission wavelength of 580 nm, using the Cytofluor Series 4000 (Perspective Biosystems). Plates were then rinsed thoroughly with Phosphate-Buffered Saline (PBS) (3 times 150 μl). The cells were lysed with 25 μl of a lysis assay reagent containing an HCV protease substrate (5× cell Luciferase cell culture lysis reagent (Promega #E153A) diluted to 1× with distilled water, NaCl added to 150 mM final, the FRET peptide substrate (as described for the enzyme assay above) diluted to 10 μM final from a 2 mM stock in 100% DMSO. […]. The plate was then placed into the Cytofluor 4000 instrument which had been set to 340 nm excitation/490 nm emission, automatic mode for 21 cycles and the plate read in a kinetic mode. EC50 determinations were carried out as described for the IC50 determinations.

Data set [2] addresses T1, HCV NS3/4A protease complex, BMS strain (UniProt P27958, species not given/STRAIN_BMS).
T1 construct: said of H77 and J4L6S; fused on or other part: A three-lysine solubilising tail at the C-terminus of NS4A and a His tag (pET21b, Ni-NTA purification)
Nature of the data set: FRET peptide assay to monitor HCV NS3/4A proteolytic activity (BMS strain). To be noted: NS3/4A BMS strain; read-out: IC50 Range. Type of data set: biochemical, Hepatitis C virus (genotype 1a). The source says: HCV NS3 protease complexes, derived from the BMS strain, H77 strain or J4L6S strain, were generated, as described below. These purified recombinant proteins were generated for use in a homogeneous assay (see below) to provide an indication of how effective compounds of the present disclosure would be in inhibiting HCV NS3 proteolytic activity.
Serum from an HCV-infected patient was obtained from Dr. T. Wright, San Francisco Hospital. An engineered full-length cDNA (compliment deoxyribonucleic acid) template of the HCV genome (BMS strain) was constructed from DNA fragments obtained by reverse transcription-PCR (RT-PCR) of serum RNA (ribonucleic acid) and using primers selected on the basis of homology between other genotype 1a strains. From the determination of the entire genome sequence, a genotype 1a was assigned to the HCV isolate according to the classification of Simmonds et al. (See P Simmonds, K A Rose, S Graham, S W Chan, F McOmish, B C Dow, E A Follett, P L Yap and H Marsden, J. Clin. Microbiol., 31(6), 1493-1503 (1993)). […] The infectious clones, H77 (1a genotype) and J4L6S (1b genotype) were obtained from R. Purcell (NIH) and the sequences are published in Genbank (AAB67036, see Yanagi, M., Purcell, R. H., Emerson, S. U. and Bukh, J. Proc. Natl. Acad. Sci. U.S.A. 94(16), 8738-8743 (1997); AF054247, see Yanagi, M., St Claire, M., Shapiro, M., Emerson, S. U., Purcell, R. H. and Bukh, J, Virology 244 (1), 161-172. (1998)).
The H77 and J4L6S strains were used for production of recombinant NS3/4A protease complexes. DNA encoding the recombinant HCV NS3/4A protease complex (amino acids 1027 to 1711) for these strains were manipulated as described by P. Gallinari et al. (see Gallinari P, Paolini C, Brennan D, Nardi C, Steinkuhler C, De Francesco R. Biochemistry. 38(17):5620-32, (1999)). Briefly, a three-lysine solubilizing tail was added at the 3′-end of the NS4A coding region. The cysteine in the P1 position of the NS4A-NS4B cleavage site (amino acid 1711) was changed to a glycine to avoid the proteolytic cleavage of the lysine tag. Furthermore, a cysteine to serine mutation was introduced by PCR at amino acid position 1454 to prevent the autolytic cleavage in the NS3 helicase domain. The variant DNA fragment was cloned in the pET21b bacterial expression vector (Novagen) and the NS3/4A complex was expressed in Escherichia coli strain BL21 (DE3) (Invitrogen) following the protocol described by P. Gallinari et al. (see Gallinari P, Brennan D, Nardi C, Brunetti M, Tomei L, Steinkuhler C, De Francesco R., J Virol. 72(8):6758-69 (1998)) with modifications. Briefly, the NS3/4A protease complex expression was induced with 0.5 mM Isopropyl β-D-1-thiogalactopyranoside (IPTG) for 22 hours (h) at 20° C. A typical fermentation (1 Liter (L)) yielded approximately 10 grams (g) of wet cell paste. The cells were resuspended in lysis buffer (10 mL/g) consisting of 25 mM N-(2-Hydroxyethyl)Piperazine-N′-(2-Ethane Sulfonic acid) (HEPES), pH 7.5, 20% glycerol, 500 mM Sodium Chloride (NaCl), 0.5% Triton X-100, 1 microgram/milliliter (“μg/mL”) lysozyme, 5 mM Magnesium Chloride (MgCl2), 1 μg/ml Dnasel, 5 mM β-Mercaptoethanol (βME), Protease inhibitor-Ethylenediamine Tetraacetic acid (EDTA) free (Roche), homogenized and incubated for 20 minutes (min) at 4° C. The homogenate was sonicated and clarified by ultra-centrifugation at 235000 g for 1 h at 4° C. Imidazole was added to the supernatant to a final concentration of 15 mM and the pH adjusted to 8.0. The crude protein extract was loaded on a Nickel-Nitrilotriacetic acid (Ni-NTA) column pre-equilibrated with buffer B (25 mM HEPES, pH 8.0, 20% glycerol, 500 mM NaCl, 0.5% Triton X-100, 15 mM imidazole, 5 mM βME). The sample was loaded at a flow rate of 1 mL/min. The column was washed with 15 column volumes of buffer C (same as buffer B except with 0.2% Triton X-100). The protein was eluted with 5 column volumes of buffer D (same as buffer C except with 200 mM Imidazole). […]

Bounds are passed on as bounds.

T1 sequence (P27958 1027-1657, change not shown, one chain of several): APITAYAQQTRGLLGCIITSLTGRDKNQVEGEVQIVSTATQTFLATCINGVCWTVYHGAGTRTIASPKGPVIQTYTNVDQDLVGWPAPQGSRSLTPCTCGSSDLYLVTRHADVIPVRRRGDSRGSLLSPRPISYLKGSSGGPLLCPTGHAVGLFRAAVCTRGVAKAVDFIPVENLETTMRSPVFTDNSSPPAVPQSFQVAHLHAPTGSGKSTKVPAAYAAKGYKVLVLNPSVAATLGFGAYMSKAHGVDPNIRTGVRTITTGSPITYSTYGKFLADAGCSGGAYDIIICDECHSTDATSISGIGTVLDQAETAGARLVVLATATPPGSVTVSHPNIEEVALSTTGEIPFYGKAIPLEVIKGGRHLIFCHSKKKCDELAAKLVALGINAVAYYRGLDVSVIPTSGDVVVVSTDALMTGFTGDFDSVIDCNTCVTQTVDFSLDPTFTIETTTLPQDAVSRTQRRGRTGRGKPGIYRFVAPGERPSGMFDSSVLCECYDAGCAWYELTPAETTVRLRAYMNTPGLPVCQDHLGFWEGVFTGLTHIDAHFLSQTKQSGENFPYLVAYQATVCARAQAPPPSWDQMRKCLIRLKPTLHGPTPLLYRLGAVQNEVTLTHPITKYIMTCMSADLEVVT

As to `COc1ccc(C(=O)O[C@@H]2C[C@H]3C(=O)N[C@]4(C(=O)NS(=O)(=O)C5CC5)C[C@H]4/C=C\COCCC[C@H](NC(=O)OC(C)(C)C)C(=O)N3C2)cc1` [Compound 10, 18-(4-methoxybenzoyloxy)-14-tert-butoxycarbonylamino-4-cyclopropylsulfonylaminocarbonyl-2,15-dioxo-3,16-diaza-10-oxatricyclo-[14.3.0.0^4,6]-nonadec-7-ene], the melting point – broadly, the temperature, or range, at which the solid turns liquid – was in the range of 145 to 147 °C. Further, the EC50 (as a rule, the concentration giving half of the maximal effect) in data set [1] lay in the range of 100 to 1000 nM. In data set [2], the IC50 (usually the concentration needed to halve the response being measured) is less than 100 nM.
The matching figures for `CC(C)(C)OC(=O)N[C@H]1CCCOC/C=C\[C@@H]2C[C@@]2(C(=O)NS(=O)(=O)C2CC2)NC(=O)[C@@H]2C[C@@H](OC(=O)c3ccc(-c4ccccc4)cc3)CN2C1=O` [Compound 11, 18-(4-biphenylcarbonyloxy)-14-tert-butoxycarbonylamino-4-cyclopropylsulfonylaminocarbonyl-2,15-dioxo-3,16-diaza-10-oxatricyclo-[14.3.0.0^4,6]-nonadec-7-ene]: 160 to 162 °C, less than 100 nM and less than 100 nM.
In the same order, the values of `CC(C)(C)OC(=O)N[C@H]1COCCC/C=C\[C@@H]2C[C@@]2(C(=O)NS(=O)(=O)C2CC2)NC(=O)[C@@H]2C[C@@H](OC(=O)c3ccccc3)CN2C1=O` [Compound 12, 18-benzoyloxy-14-tert-butoxycarbonylamino-4-cyclopropylsulfonylaminocarbonyl-2,15-dioxo-3,16-diaza-12-oxatricyclo-[14.3.0.0^4,6]-nonadec-7-ene] are 135 to 137 °C, 100 to 1000 nM and less than 100 nM.
Consider `CC(C)(C)OC(=O)N[C@H]1COCCC/C=C\[C@@H]2C[C@@]2(C(=O)NS(=O)(=O)C2CC2)NC(=O)[C@@H]2C[C@@H](OC(=O)c3cccc(Oc4ccccc4)c3)CN2C1=O` [Compound 13, 18-(3-phenoxybenzoyloxy)-14-tert-butoxycarbonylamino-4-cyclopropylsulfonylaminocarbonyl-2,15-dioxo-3,16-diaza-12-oxatricyclo-[14.3.0.0^4,6]-nonadec-7-ene], for which the melting point was 123 to 125 °C. The EC50 in data set [1] lay within 100 to 1000 nM. Besides, in data set [2], the IC50 is less than 100 nM.
In turn, `CC(C)(C)OC(=O)N[C@H]1COCCC/C=C\[C@@H]2C[C@@]2(C(=O)NS(=O)(=O)C2CC2)NC(=O)[C@@H]2C[C@@H](OC(=O)c3ccc(Oc4ccccc4)cc3)CN2C1=O` [Compound 14, 18-(4-phenoxybenzoyloxy)-14-tert-butoxycarbonylamino-4-cyclopropylsulfonylaminocarbonyl-2,15-dioxo-3,16-diaza-12-oxatricyclo-[14.3.0.0^4,6]-nonadec-7-ene] yielded a melting point of 207 to 209 °C. Further, in data set [1], the 50% effective concentration (EC50) was in the range of 100 to 1000 nM. Also, the IC50 in data set [2] was 100 to 1000 nM.
Regarding `CC(C)(C)OC(=O)N[C@H]1CCCCC/C=C\[C@@H]2C[C@@]2(C(=O)NS(=O)(=O)C2CC2)NC(=O)[C@@H]2C[C@@H](OC(=O)c3ccccc3)CN2C1=O` [Compound 15, 18-benzoyloxy-14-tert-butoxycarbonylamino-4-cyclopropylsulfonylaminocarbonyl-2,15-dioxo-3,16-diazatricyclo-[14.3.0.0^4,6]-nonadec-7-ene], the melting point was in the range of 140 to 142 °C. Further, the 50% effective concentration (EC50) in data set [1] was less than 100 nM. For the same molecule, the concentration for half-maximal inhibition (IC50) in data set [2] is less than 100 nM.
For `CC(C)(C)OC(=O)N[C@H]1CCCCC/C=C\[C@@H]2C[C@@]2(C(=O)NS(=O)(=O)C2CC2)NC(=O)[C@@H]2C[C@@H](OC(=O)c3ccc4c(c3)OCO4)CN2C1=O` [Compound 16, 18-(3,4-methylenedioxybenzoyloxy)-14-tert-butoxycarbonylamino-4-cyclopropylsulfonylaminocarbonyl-2,15-dioxo-3,16-diazatricyclo-[14.3.0.0^4,6]-nonadec-7-ene], the melting point is 153 to 155 °C. The EC50 in data set [1] was less than 100 nM. For the same molecule, in data set [2], the IC50 is less than 100 nM.
In turn, `CC(C)(C)OC(=O)N[C@H]1CCCCC/C=C\[C@@H]2C[C@@]2(C(=O)NS(=O)(=O)C2CC2)NC(=O)[C@@H]2C[C@@H](OC(=O)c3cccc(OC(F)(F)F)c3)CN2C1=O` [Compound 17, 18-[(3-trifluoromethoxy)benzoyloxy]-14-tert-butoxycarbonylamino-4-cyclopropylsulfonylaminocarbonyl-2,15-dioxo-3,16-diazatricyclo-[14.3.0.0^4,6]-nonadec-7-ene] yielded a melting point of 132 to 134 °C. For the same molecule, the concentration giving a half-maximal response (EC50) in data set [1] was less than 100 nM. Also, in data set [2], the IC50 was less than 100 nM.

Values taken from patent US7772183B2 (Bristol-Myers Squibb Company, priority 2005, dated 2010).
